Measured values taken from patent US6906061B2, “Pharmaceutical agent containing Rho kinase inhibitor” (Mitsubishi Pharma Corporation, priority 1996, dated 2005).
Structures can show the parent of a compound that is named as a salt.

How the values were obtained:
Human SK-Mel-28 melanoma = test: Inhibition of cell growth of SK-Mel-28 melanoma; format: cell-based; settings: 72 hours, MTT
Description: Inhibition of Cell Growth of SK-Mel-28 Melanoma
Human SK-Mel-28 melanoma (10^4 cells) and the test compound were suspended in RPMI1640 medium containing 100 μl of 10% FBS and incubated in a 96 well plate at 37° C. under 5% CO2 gas for 72 hours. After the incubation, 10 μl of MTT (5 mg/ml) was added to each well and the cells were incubated at 37° C. under 5% CO2 gas for 4 hours. Then, 10% sodium dodecyl sulfate and 0.01 N hydrochloric acid solution were each added by 10 μl to respective wells. After the plate was stood overnight, absorbance at 570 nm was measured using a microplate reader and the inhibition percentage (% cytotoxicity) was calculated by the following formula.
The cytotoxicity against human cultured tumor cells was confirmed by pigment method (Carmichael et al., Cancer Res., 47, 936-942, 1987: Mosman, J. Immunol. Methods, 65, 55-63, 1983) using 3-(4,5-dimethylthiazol-2-yl)-2,5-diphenyltetrazolium bromide (MTT).
The test compound was dissolved in dimethyl sulfoxide and diluted with RPMI 1640 medium before use. The final dimethyl sulfoxide concentration was adjusted to not more than 0.25%.

[1] = test system: smooth muscle cell (SMC) from rat aorta; test: Inhibition of growth of vascular smooth muscle cell; format: cell-based; settings: 48 hours, MTT
Description: Inhibition of Growth of Vascular Smooth Muscle Cell
The separation from the artery of rat and culture of smooth muscle cell (SMC) followed the explant method of Ross (Ross, R. and Glomset, J. A., N. Engl. J. Med., 295, 369-420, 1976). Male wistar rats (10 week old) was slaughtered by cutting the carotid arteries and aorta of thorax was removed. After removal of fat tissues around the tunica externa and peeling of tunica intima, the artery was minced and incubated in 10% fetal bovine serum (FBS)-containing DMEM medium at 37° C. under 5% CO2 gas. Seven days later, the out-grown cells were separated by trypsin treatment, washed with phosphate-buffered saline (PBS) and incubated in 10% FBS-containing DMEM medium in a 80 cm^2 culture flask. The cells of subculture 2 were suspended in 10% FBS-containing DMEM medium at 5×10^4 cells/ml and 100 μl thereof per well was added to 96 well collagen-coated plate, which was incubated at 37° C. under 5% CO2 gas for one day. The test compound was appropriately diluted with dimethyl sulfoxide (DMSO) and added to the 96 well plate. The concentration of DMSO in the medium was adjusted to 1%. After 48 hours, 10 μl of MTT solution (5 mg/ml) was added and, 4 hours later, 10% sodium dodecyl sulfate-0.01 N hydrochloric acid (50 μl) was added. The absorbance at 570 nm was measured the following day by an immunoreader. The SMC growth inhibitory action of the test compound was shown by inhibition percentage calculated by the following formula The results are shown in Table 10.

[2] = test system: thoractic aorta ring contracted with phenylephrine; test: Vasodilating action on phenylephrine-contracted thoracic aorta rings; settings: rabbit aortic ring, phenylephrine 10^−6 M contraction; concentration for 50% relaxation; read-out: Vasorelaxing action
Description: Male rabbits (body weight 1.9-3.0 kg) were anesthetized with pentobarbital sodium and exsanguinated, whereafter thoractic aorta was removed. An about 2 mm width aortic ring samples were prepared and hung in a Magnus bath (40 ml) filled with Krebs-Henseleit solution (37° C., NaCl 117 mM; KCl 4.7 mM; CaCl2 2.5 mM; MgSO4 1.2 mM; NaHCO3 24.8 mM; KH2PO4 1.2 mM; glucose 11.0 mM) at a load of 2 g. The Magnus bath was constantly bubbled with a mixed gas (95% O2+5% CO2 gas). The tension of the preparation was measured with an isomeric transducer (TB-611T, Nippon Koden). The preparation was contracted with phenylephrine (10^−6 M) and, after the contraction was stabilized, the test compound was added accumulatively and relaxing action was observed.

[3] = test system: trachea specimen contracted with acetylcholine; test: Effect on contraction by acetylcholine of trachea specimen removed from guinea pig; settings: acetylcholine 10^−6 M contraction, 50% relaxation vs papaverine 10^−4 M maximum, read-out: Trachea relaxing action
Description: Male Hartley guinea pigs (body weight 260-390 g) were anesthetized by the peritoneal administration of pentobarbital sodium (100 mg/kg) and exsanguinated, whereafter trachea was removed. The anterior cartilage of the trachea was opened and the band was cut in a 3 mm width strip to give a specimen. The specimen was hung in a Magnus bath (40 ml) filled with Krebs-Henseleit solution (NaCl 117 mM; KCl 4.7 mM; CaCl2 2.5 mM; MgSO4 1.2 mM; NaHCO3 24.8 mM; KH2PO4 1.2 mM; glucose 11.0 mM) at a load of 1 g. The Magnus bath was constantly bubbled with a mixed gas (95% O2+5% CO2 gas). The tension of the strip was measured with an isomeric transducer (TB-611T, Nippon Koden) and depicted on a recorder (Ti-102, Tokai Irika).

mouse femoral bone = test: Inhibition of bone resorption (in vitro), mouse femoral bone; settings: 144 h, 6 days incubation of ICR mouse femoral bone
Description: Inhibition of Bone Resorption (in vitro)
The determination of the in vitro inhibition of bone resorption using mouse femoral bone followed the method below.
The femoral bone of 3-6 week old male ICR mice was aseptically removed, and bone marrow cavity was washed with F12 medium, containing 10% heat inactivated fetal bovine serum, penicillin G calcium (100 units/ml), kanamycin sulfate (60 μg) and 0.15% sodium hydrogencarbonate (hereinafter the medium is to be referred to as culture solution). After washing the bone marrow cavity and then removing the soft tissue adhered to the bone, the bone was subjected to incubation. The test compound was once dissolved in dimethyl sulfoxide (DMSO) to give a 10 mg/ml solution, which was diluted 1000-fold with the culture solution to give a 10 μg/ml solution. The test compounds were respectively added to the concentration shown in Table 7 and, using this culture solution (1.2 ml), the ICR mouse femoral bone was incubated in a 24 well plate for 6 days under the conditions of 5% CO2 gas, 95% air. After the completion of the incubation, the culture supernatant was recovered, and the amount of calcium suspending in the culture supernatant was quantitatively determined by the chelate method using o-cresolphthalein. The bone resorption inhibitory action of the test compound was calculated by the following formula using the incubation of the femoral bone without addition of the test compound as a control. [formula] This experiment was done with 4 cases in each group. As the control, the same amount of DMSO alone as in the case with the addition of the test compound was used.

[4] = molecular target: T1, Human Platelet Rho Kinase (p160ROCK) (Homo sapiens, UniProt Q13464); test: Rho kinase inhibitory action (inhibition of human platelet Rho kinase (p160ROCK)); format: biochemical; settings: histone substrate, 1 μM ATP
T1 construct: Human platelet p160ROCK was isolated by the method of Ishizaki et al; from tissue; host or cells: human platelets
Description: Rho Kinase Inhibitory Action (Inhibition of Human Platelet Rho Kinase (p160ROCK))
Kinase assay included the following steps. That is, a reaction mixture (total amount 30 μl) containing 50 mM Hepes-NaOH (pH=7.4), 10 mM MgCl2, 5 mM MnCl2, 2 mM dithiothreitol, 0.02% Brij35, 1 μM [γ-^32P]ATP, 330 μg/ml histone, p160ROCK (2 μl) isolated by the method of Ishizaki et al. and the test compound was incubated at 30° C. for 20 minutes. The solution was mixed with a 1/3 amount of 4× Laemmli sample buffer, boiled for 5 minutes and applied to SDS-PAGE. The gel was stained with Coomassie Brilliant Blue and dried. The band of histone was cut out and assayed for radioactivity.

[5] = test system: BALB/c spleen cells stimulated with C57BL/6 spleen cells; test: Inhibition of mouse allogenic mixed lymphocyte reaction; format: cell-based; settings: Mus musculus, Lymphocyte, 96 h; 4 days culture, MTT; read-out: Mouse allogenic MLR inhibitory activity IC50
Description: Inhibition of Mouse Allogenic Mixed Lymphocyte Reaction
A mouse allogenic mixed lymphocyte reaction (hereinafter to be referred to as mouse allogenic MLR) was performed by mixed culture (equal ratio) of the spleen cell of BALB/c mice as the reaction cell and the spleen cell of C57BL/6 mice treated with mitomycin C as stimulated cell.
The reaction cells were prepared by the following method. Spleen was removed from 5-6 week old BALB/c mice and treated with RPMI1640 medium (containing kanamycin sulfate (60 μg/ml), penicillin G potassium (100 units/ml), N-2-hydroxyethylpiperazine-N′-2-ethanesulfonate (10 mM), 0.1% sodium hydrogencarbonate and L-glutamin (2 mM)) supplemented with 5% heat inactivated fetal bovine serum (FBS) to give a single cell suspension of the spleen cell. After hemolysis treatment, the suspension was adjusted to10^7 cells/ml with RPMI1640 medium containing 10^−4 M 2-mercaptoethanol and 10% FBS and used as a reaction cell suspension.
The reaction cell suspension (50 μl) prepared by the above method, stimulated cell suspension (50 μl) and the test compound (100 μl) prepared using RPMI1640 medium containing 10% FBS were added to a 96 well plate and incubated at 37° C. under 5% CO2 gas, 95% air for 4 days.
A pigment assay using 3-(4,5-dimethylthiazol-2-yl)-2,5-diphenyltetrazolium bromide (MTT) was applied for the determination of lymphocyte transformation reaction.
After the completion of culture, the supernatant (100 μl) in each well was removed, and 5 mg/ml MTT solution (20 μl) was added to each well, which was followed by incubation at 37° C. for 4 hours. Then, a 0.01 N hydrochloric acid solution (100 μl) containing 10% sodium dodecyl sulfate was added and the mixture was incubated at 37° C. overnight. The resulting purple crystals of formazan was dissolved and absorbance at 550 nm was measured using a microplate absorption meter, which was used as the index of lymphocyte transformation reaction of the mouse allogenic MLR. The inhibition of mouse allogenic MLR was evaluated by calculating the inhibition percentage by the following formula The results are shown in Table 7.

[6] = test system: hind limb skin blood flow; test: Peripheral blood flow increasing action in STZ-induced diabetic rats; format: in vivo, rat; settings: intravenous, 1 μg
Description: Peripheral Blood Flow Increasing Action
Streptozotocin (STZ, 65 mg/kg) was intravenously injected to male SD rats (body weight 200-300 g) to prepare diabetic rats. One month later, STZ-induced diabetic rats were anesthetized with pentobarbital sodium and the blood flow in the hind limb skin was measured with laser blood flowmeter (ALF21R, Advance). The test compound was intravenously administered via catheter dwelled in the carotid arteries, and hind limb skin blood flow increasing action was observed. The blood flow increasing action of the test compound was expressed by increase percentage from the blood flow before administration.

T1 sequence (Q13464 whole entry): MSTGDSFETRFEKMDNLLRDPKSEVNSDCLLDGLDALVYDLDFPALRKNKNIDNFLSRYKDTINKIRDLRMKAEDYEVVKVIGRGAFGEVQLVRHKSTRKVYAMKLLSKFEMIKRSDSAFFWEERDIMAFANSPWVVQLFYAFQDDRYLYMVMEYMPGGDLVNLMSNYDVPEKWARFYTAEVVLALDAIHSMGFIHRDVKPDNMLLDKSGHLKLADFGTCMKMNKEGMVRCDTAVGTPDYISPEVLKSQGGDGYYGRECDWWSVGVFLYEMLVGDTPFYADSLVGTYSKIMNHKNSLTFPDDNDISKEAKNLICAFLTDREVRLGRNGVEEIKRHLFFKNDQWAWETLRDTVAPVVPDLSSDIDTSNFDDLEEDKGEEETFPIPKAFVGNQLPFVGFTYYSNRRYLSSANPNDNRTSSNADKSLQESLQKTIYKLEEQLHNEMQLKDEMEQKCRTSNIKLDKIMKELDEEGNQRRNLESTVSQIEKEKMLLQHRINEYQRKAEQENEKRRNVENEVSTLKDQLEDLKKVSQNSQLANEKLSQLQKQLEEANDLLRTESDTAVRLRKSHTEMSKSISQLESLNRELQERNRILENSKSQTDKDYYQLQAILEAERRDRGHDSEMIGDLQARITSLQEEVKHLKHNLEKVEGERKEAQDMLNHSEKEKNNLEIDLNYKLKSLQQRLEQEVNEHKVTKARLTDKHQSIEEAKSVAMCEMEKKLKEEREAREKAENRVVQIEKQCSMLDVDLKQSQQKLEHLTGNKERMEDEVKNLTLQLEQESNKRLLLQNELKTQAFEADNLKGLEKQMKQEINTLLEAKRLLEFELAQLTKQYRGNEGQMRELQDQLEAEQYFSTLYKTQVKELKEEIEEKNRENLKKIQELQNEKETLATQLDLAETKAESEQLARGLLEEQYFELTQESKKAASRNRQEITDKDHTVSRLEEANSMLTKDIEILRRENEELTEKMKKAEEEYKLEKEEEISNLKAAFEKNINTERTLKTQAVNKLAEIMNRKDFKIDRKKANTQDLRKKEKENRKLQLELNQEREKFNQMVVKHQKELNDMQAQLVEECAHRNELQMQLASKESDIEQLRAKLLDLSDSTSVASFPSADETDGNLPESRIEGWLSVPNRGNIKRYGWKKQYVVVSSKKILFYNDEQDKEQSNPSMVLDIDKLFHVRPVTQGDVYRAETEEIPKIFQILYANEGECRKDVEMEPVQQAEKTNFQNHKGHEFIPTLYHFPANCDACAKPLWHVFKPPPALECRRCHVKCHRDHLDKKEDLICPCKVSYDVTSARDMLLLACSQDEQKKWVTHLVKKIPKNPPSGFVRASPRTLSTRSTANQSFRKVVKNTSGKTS

SMILES: NC[C@H]1CC[C@H](C(=O)Nc2ncnc3[nH]ncc23)CC1 [Compound 115.2HBr.1/4H2O, trans-N-(1H-pyrazolo[3,4-d]pyrimidin-4-yl)-4-aminomethylcyclohexanecarboxamide]
- IC50 (Human SK-Mel-28 melanoma): 9 µM

SMILES: CCCCCCCCNC(=N)NC[C@H]1CC[C@H](C(=O)Nc2ccnc3[nH]ccc23)CC1 [compound 153.2HCl, trans-N-(1H-pyrrolo[2,3-b]pyridin-4-yl)-4-(3-octylguanidinomethyl)cyclohexanecarboxamide]
- IC50 [1]: 27 µM

SMILES: Cn1ccc2c(NC(=O)[C@H]3CC[C@H](CNC(=N)N)CC3)ccnc21 [Compound 145.2HCl.H2O, trans-N-(1-methylpyrrolo[2,3-b]pyridin-4-yl)-4-(guanidinomethyl)cyclohexanecarboxamide]
- IC50 (Human SK-Mel-28 melanoma): 62 µM

SMILES: C[C@@H](N)c1ccc(C(=O)Nc2ccnc3[nH]ccc23)cc1N=[N+]=[N-] [Compound 179.2HBr.1/2H2O, (R)-(−)-N-(1H-pyrrolo[2,3-b]pyridin-4-yl)-4-(1-aminoethyl)-3-azidebenzamide]
- IC50 [2]: 0.03 µM
- IC50 [3]: 0.029 µM

SMILES: N=C(N)NC[C@H]1CC[C@H](C(=O)Nc2ccnc3[nH]ccc23)CC1 [Compound 142.2HCl.H2O, trans-N-(1H-pyrrolo[2,3-b]pyridin-4-yl)-4-guanidinomethylcyclohexanecarboxamide]
- inhibition at 100 µM (mouse femoral bone): 44.2%
- IC50 (Human SK-Mel-28 melanoma): 59 µM

SMILES: CC1CNCCN1S(=O)(=O)c1cccc2cnccc12 (stereo not drawn) [Compound 308.2HCl, 1-(5-isoquinolinesulfonyl)-2-methylpiperazine]
- IC50 [4]: 5 µM
- IC50 [5]: 13.9 µM

SMILES: C[C@@H](N)c1ccc(C(=O)Nc2ccncc2)cc1 [Compound 157.HCl.H2O, (R)-(+)-N-(4-pyridyl)-4-(1-aminoethyl)benzamide]
- Increase in skin blood flow ± standard error (%) [6]: 211.6 ± 13.6%
- IC50 [1]: 55 µM

SMILES: C[C@@H](N)c1ccc(C(=O)Nc2ccncc2)cc1Cl [compound 163.2HBr, (R)-(+)-N-(4-pyridyl)-4-(1-aminoethyl)-3-chlorobenzamide]
- IC50 [1]: 63 µM
